In patent US12708136B2, “Supported nicotine composition” (priority 2021, dated 2026):

Conditions: nicotine used in the experiments
Experimental: Mixtures were prepared of 10%, 20% and 50% by weight of nicotine on Florite® PS-200 grade and on Florite® R-grade.

## CN1CCCC1c1cccnc1 (stereo not shown) [nicotine]
  starting level of impurity myosmine: 0.14%
